This is an account of results in a melting point compilation (Tetko et al.; mined from patent text by program, amines drawn as free bases though some values may be those of a salt).

In turn, `N#Cc1cnn2c(C(F)(F)F)cc(-c3ccc(F)cc3)nc12` yielded a melting point of 198 °C.
For `CC(C)c1ccc(NC(=O)OC(C)(C)C)c(C(=O)O)c1` the value was 175 °C; for `CC(=O)OC(CS(=O)(=O)CC(OC(C)=O)c1ccc(N)cc1)c1ccc(N)cc1` (configuration not stated), 92 to 93 °C.
With `CC(C)c1nc(COCCOC(N)=O)n(Cc2ccccn2)c1Sc1cc(F)cc(F)c1` the figure was 110 to 111 °C; with `CCOC(=O)Cn1c(=O)c2cc(Cl)ccc2n(Cc2ccc(Br)cc2F)c1=O`, 145 to 146 °C; with `C[C@@H](OS(C)(=O)=O)C(=O)N1C(=O)N(C)C[C@H]1C(=O)OC(C)(C)C`, 97 to 100 °C.
With `CCOC(=O)c1[nH]c2cc(C(F)(F)F)ccc2c1NCC(=O)c1ccccc1` the figure was 237 to 239 °C.
`CCCC1=C(C#N)C(c2ccccc2Cl)c2c[nH]nc2N1` (configuration not stated): the melting point worked out at 248 °C.
With `COc1ccc2c(c1)C(N1CCN(C)CC1)c1ccccc1C=C2` (configuration not stated) the figure was 118 °C; with `COC(=O)CCc1cc(C(=O)c2ccccc2Cl)c(NC(=O)CBr)s1`, 104 to 106 °C.
As to `CC=C1CC1C(=C1C(=O)OC(=O)C1c1cc(C)n(-c2ccccc2)c1C)C1CC1` (configuration not stated), the melting point was 145 °C.
For `CNc1ccc(C#Cc2cncc(-c3nc(NC)nc4cc(OC)c(OC)cc34)c2)cn1` the value was 160 to 162 °C; for `CNC(=O)n1nc(Oc2c(F)cc(C(F)(F)F)cc2Cl)cc1C`, 87 to 88 °C.
For `CCOC(=O)c1cnc2c(C(F)(F)F)cc(-c3ccc(C(F)(F)F)cc3)cn12` the value was 132 °C; for `O=C(O)CCNc1cccc(CNC(=O)C2Cc3ccccc3N2S(=O)(=O)c2ccc(-c3cccc(C(F)(F)F)c3)cc2)c1` (configuration not stated), 85 °C.
As for `CCCC1=C(C(=O)OCC)C(c2ccccc2Cl)c2cn(C)nc2N1` (configuration not stated), the melting point was in the range of 150 to 151 °C.
The compound `CSC(Nc1cccnc1)=C(C#N)S(=O)(=O)c1ccc(Cl)cc1` registered a melting point of 181 to 182 °C.
With `O=C(O)COc1ccc(C(=O)c2ccc(Cl)c(Cl)c2)c(Cl)c1Cl` the figure was 165 to 167 °C.
With `CCCCN1CCC(CNC(=O)c2ccc(N)n3cc(-c4ccccc4)nc23)CC1` the figure was 221 °C; with `CCCc1[nH]c2cc(C(=O)O)ccc2c1C(=O)C1CCCCC1`, 217 to 218 °C.
With `Oc1ccc(-c2nc3cc(O)cc(C(Br)CBr)c3o2)cc1` (configuration not stated) the figure was 175 to 177 °C.
As for `Cc1nc2c(OCCNCc3ccccc3)cccc2[nH]1`, the melting point is greater than 250 °C.
Consider `Cn1c(=O)c2c(ncn2CCCN2CCC(C(=O)c3ccc(F)cc3)CC2)n(C)c1=O`, for which the melting point was in the range of 114 to 119 °C.
With `COc1cc(O)ccc1C=CC(=O)c1ccc(O)cc1` the figure was 210 to 212 °C; with `CCc1cc2c(s1)S(=O)CCc1cc(=O)n(-c3ccc(Cl)cc3)nc1-2` (configuration not stated), 173 to 174 °C; with `CC1CC=NN1C(=O)c1cccnc1` (single isomer, unassigned; (-)), 67 to 69 °C.
Compound `CCCC[C@H](NC(=O)[C@H](CC(C)C)NC(=O)COc1ccc(OC)cc1)C(=O)CSCc1ccco1` gave a melting point of 86 to 88 °C.
With `N#Cc1ccc(C=C(C(=O)C2CC2)C(=O)C2CC2)cc1` the figure was 100 to 102 °C; with `Nc1ncnc2c1c(-c1ccc(OCc3ccccc3)cc1)cn2-c1cccc(OCCCl)c1`, 146 to 148 °C.
For `CC1CCC(C(C)C)C(OC(=O)N[C@@]2(C)CCC(=O)NC2=O)C1` (some centres not stated) the value was 170 to 172 °C; for `O=C(CC(=O)c1ccc(O)cc1O)c1ccc(OCc2ccccc2)c(OCc2ccccc2)c1`, 245 to 247 °C; for `CCCc1n[nH]c2c(=O)[nH]c(-c3ccccc3OCC)nc12`, 199 to 201 °C.
The compound `CCc1ccc2c(c1)C=Cc1cc(C)ccc1C2c1cn(-c2nccc(C(=O)NCC(=O)O)n2)c(=O)[nH]c1=O` (configuration not stated) showed a melting point of 195 to 198 °C.
With `CCOC(=O)c1ccccc1N(CC(=O)N(C)c1ccccc1)C(=O)CNC(=O)Nc1cccc(C(C)O)c1` (configuration not stated) the figure was 195 °C; with `O=Cc1ccc(NCc2ccc(F)cc2)cn1`, 167 to 169 °C; with `COc1ccc2c(c1)CCN1C(=O)C3=C(CC21)NCCC3` (configuration not stated), 202 to 205 °C.
For `C#CCOc1ccc(C(=O)C=Cc2cccnc2)c(O)c1` the value was 115 to 117 °C; for `Cc1c(NC(=O)c2ccc(OCC3CC3)cc2)ccc2cc(CNCC(C)(C)O)n(C)c12`, 180 °C.
With `CCc1ccc2c(OCC(=O)O)c(C(C)C)nn2c1`, the melting point lay in the range of 118 to 119 °C.
For `COC(Cn1cncn1)(c1ccc(F)cc1F)C(F)(F)S(=O)(=O)CCO` (configuration not stated) the value was 108 to 110 °C.
The compound `CC(C)n1cnc2c(Nc3ccc([N+](=O)[O-])cc3)nc(Cl)nc21` yielded a melting point greater than 260 °C.
For `Cc1cc(C)cc(NCc2ccc3nc(NC4CCN(CC(N)=O)CC4)n(Cc4nc(C)ccc4O)c3c2)c1` the value was 206 °C; for `CCOC(=O)C(=CNc1ccnn1Cc1ccncc1)C(=O)OCC`, 95 to 97 °C; for `N#CC(NC(=O)c1cccn2c(Cl)cnc12)c1ccco1` (configuration not stated), 142 to 143 °C.
For `N#Cc1cccc(-c2csc(N=C(N)N)n2)n1` the value was greater than 300 °C.
With `CCOC(=O)C1=COc2cc(OC(C)=O)ccc2O1` the figure was 88 °C; with `CNC(=O)N[C@H]1CC[C@H](CCN2CCN(c3ccc(OC)c(Cl)c3Cl)CC2)CC1`, 237 to 241 °C; with `O=c1[nH]c2ccc([C@H]3CC[C@H](NCCCc4ccc(F)cc4)CC3)cc2[nH]1`, 336 to 339 °C.
Take `CC(C)NC=C1C(=O)COc2ccccc2C1=O`: the melting point was in the range of 89 to 91 °C.
`CC(O)COc1ccc(-c2ccc(C(CC3CCOCC3)c3ccc(S(=O)(=O)C4CC4)cc3)[nH]2)nc1` (configuration not stated) returned a melting point of 116 to 118 °C.
With `Cc1ccccc1-c1ccc(C(=O)N2Cc3ccc(C(=O)NCCc4ccc(Cl)cc4)n3Cc3ccccc32)cc1C` the figure was 169 to 171 °C.
For `CCOC(=O)c1cn(C2CC2)c2nc(N3CCC(N)C3)c(F)cc2c1=O` (configuration not stated) the value was 144 to 146 °C; for `CC(=O)NCCn1ccc2c1-c1ccc(Cl)cc1CC2`, 144 to 145 °C; for `O=C(Oc1ccccc1)N1c2ncccc2OCC1OP(=O)(Oc1ccccc1)Oc1ccccc1` (configuration not stated), 82 °C.
For `CCOC(=O)Cc1c[nH]c2cc(-c3ccccc3)nn2c1=O` the value was 245 to 250 °C.
On to `CN1C(=O)CCC2=C1CCc1cccc(F)c12`, for which the melting point was in the range of 75 to 76 °C.
For `O=C1CC(Br)(CC(Br)(Br)Br)O1` (configuration not stated) the value was 71 to 73 °C.
With `NS(=O)(=O)c1ccc(-c2cn(-c3nc(-c4ccc(Cl)cc4)cc(C(F)(F)F)n3)cn2)s1` the figure was 284 °C.
For `CCN(CC)c1nc2ccccc2n2c(C)nnc12` the value was 123 to 125 °C; for `CC(C)n1c(=O)c(C(=O)O)cc2ccccc21`, 168 to 169 °C; for `C(=C\c1nc(COc2ccc(CCCCn3ccnc3)cc2)co1)/c1ccccc1`, 103 to 104 °C.
As to `O=C(O)c1cc(F)c(F)c(OC(F)F)c1F`, the melting point is 68 to 70 °C.
